# According to US20020002294A1, “Estrogenic compounds as antiangiogenic agents” (priority 1997, published 2002):
# Tests used:
# [1] = test system: MDA-MB-435 estrogen receptor-negative human breast carcinoma cells; assay: In Vivo Tumor Growth Inhibition; parameters: species or system SCID mice; settings: 29 days at 75 mg/kg p.o.
# Description: To determine the antitumor activity of 2-ME and derivatives, SCID mice were s.c. inoculated with 10^6 MDA-MB-435 estrogen receptor-negative human breast carcinoma cells. Treatment was initiated on day 12 when tumor volumes reached 75-100 mm3 in volume. Drugs were suspended in 0.5 g/100 ml of carboxymethylcellulose with sterile glass beads, vortexed for 5 minutes, and administered p.o. in a volume of 0.1 ml. Control mice received 0.1 ml of carboxymethylcellulose p.o. Serial caliper measurements of perpendicular diameters were used to calculate tumor volume using the following: (shortest diameter)^2×(longest diameter)×0.52. T/C was calculated as the volume of treated tumors over the volume of control tumors. A smaller number indicates a greater inhibition of tumor growth.
# tubulin [2] = assay: tubulin activities of 2-ME analogs (Table 3); assay type: biochemical
# tubulin [3] = assay: inhibition of [3H]colchicine binding to tubulin; settings: 1.0 μM tubulin, 10 min at 37° C.
# Description: Incubation was for 10 min. at 37° C.
# Incubation was for 10 mi. at 37° C. Average values obtained in three independent experiments are presented in the table, except for 2-methoxyestrone, which was only examined twice. S.D., standard deviation.
# [4] = test system: new blood vessel cells (angiogenesis); assay: chick embryo chorioallantoic membrane (CAM) assay; assay type: in vivo; settings: 100 mg disk, after 48 hours
# Description: A suitable assay is the chick embryo chorioallantoic membrane (CAM) assay described by Crum et al. Science 230:1375 (1985). See also, U.S. Pat. No. 5,001,116, hereby incorporated by reference, which describes the CAM assay. Briefly, fertilized chick embryos are removed from their shell on day 3 or 4, and a methylcellulose disc containing the drug is implanted on the chorioallantoic membrane. The embryos are examined 48 hours later and, if a clear avascular zone appears around the methylcellulose disc, the diameter of that zone is measured.
# [5] = target: T1, rat uterine cytosolic estrogen receptor (Rattus norvegicus, UniProt P06211); assay: Relative Binding Affinity to estrogen receptor; settings: at 0°; 3H-Estradiol=100
# T1 construct: from tissue; host or cells: rat uterine cytosol (per the result head)
# T1 sequence (P06211 1-600): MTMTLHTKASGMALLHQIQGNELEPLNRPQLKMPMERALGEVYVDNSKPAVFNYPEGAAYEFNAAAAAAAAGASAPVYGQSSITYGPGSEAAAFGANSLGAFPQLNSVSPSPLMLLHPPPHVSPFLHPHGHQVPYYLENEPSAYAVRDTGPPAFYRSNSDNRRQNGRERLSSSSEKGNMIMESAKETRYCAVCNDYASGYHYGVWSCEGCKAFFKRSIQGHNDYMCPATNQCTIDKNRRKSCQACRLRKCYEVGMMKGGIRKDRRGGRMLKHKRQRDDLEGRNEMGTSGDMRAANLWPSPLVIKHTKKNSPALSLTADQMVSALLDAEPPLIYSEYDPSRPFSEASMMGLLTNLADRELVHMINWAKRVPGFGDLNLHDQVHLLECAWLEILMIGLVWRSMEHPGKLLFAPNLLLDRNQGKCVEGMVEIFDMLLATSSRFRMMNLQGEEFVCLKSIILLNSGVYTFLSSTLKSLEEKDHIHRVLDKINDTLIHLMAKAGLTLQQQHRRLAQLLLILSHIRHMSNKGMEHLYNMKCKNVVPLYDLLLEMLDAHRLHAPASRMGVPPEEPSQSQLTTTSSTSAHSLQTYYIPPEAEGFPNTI
# Excerpt: (§1) The tubulin activities, breast cancer cell line activities, and the cell panels most sensitive to selected analogs are shown in Tables 3 and 4.
# [6] = test system: Ovarian cell lines (especially OVCAR-3); assay: Human Tumor Cell Panel Assay in vitro, ovarian panel; assay type: cell-based; parameters: key: Most sensitive cell panes are marked with ✓
# Excerpt: as §1
# [7] = test system: 8 human breast cancer cell lines; assay: human tumor cell panel assay in vitro, breast panel; assay type: cell-based; parameters: key to Most Sensitive Cell Lines in Human Tumor Cell Panel Assay: Breast: Most sensitive cell panes are marked with ✓
# Excerpt: as §1
# tubulin [8] = assay: inhibition of tubulin polymerization in vitro (turbidity at 350 nm); assay type: biochemical
# Description: Anti-mitotic activity can be evaluated by testing the ability of an estradiol derivative to inhibit tubulin polymerization and microtubule assembly in vitro. Microtubule assembly is followed in a Gilford recording spectrophotometer (model 250 or 2400S) equipped with electronic temperature controllers. A reaction mixture (all concentrations refer to a final reaction volume of […]) contains 1.0 M monosodium glutamate (ph 6.6), 1. omg/ml (10 μM) tubulin, 1.0 mM MgCl2, 4% (v/v) dimethylsulfoxide and 20-75μM of a composition to be tested. The 0.24 ml reaction mixtures are incubated for 15 min. at 37° C. and then chilled on ice. After addition of 10p1 2.5mM GTP, the reaction mixture is transferred to a cuvette at 0° C., and a baseline established. At time zero, the temperature controller of the spectrophotometer is set at 37° C. Microtubule assembly is evaluated by increased turbity at 350 nm.
# A. Each reaction mixture (all concentrations refer to the final reaction volume of 0.25 ml) contained 1.0 M monosodium glutamate (pH 6.6), 1.0 mg/ml (10 μM) tubulin, 1.0 mM MgCl2, 4% (v/v) dimethylsulfoxide, and either 0 (curve 1), 20μM (curve 2), 40 μM (curve 3), or 75 μM (curve 4) 2-methoxyestradiol. The 0.24 ml reaction mixtures were incubated for 15 min. at 37° C and chilled on ice. After addition of 10 μl of 2.5 mM GTP the reaction mixtures were transferred to cuvettes held at 0° C., and baselines were established. At time zero the temperature controller was set at 37° C. At the times indicated by the vertical dashed lines the temperature controller was set at the indicated temperatures.
# B. Each reaction mixture contained 0.8 M monosodium glutamate (pH 6.6), 1.2 mg/ml (12 μM) tubulin, 4% (v/v) dimethylsulfoxide, and either 0 (curve 1), 1.0 FM (curve 2), 2.0 ,M (curve 3), 3.0 μM (curve 4), or 4.0 μM (curve 5) 2-methoxyestradiol. The 0.24 ml reaction mixtures were incubated for 15 min. at 26° C. and chilled on ice. After addition of 10μl of 10 mM GTP the reaction mixtures were transferred to cuvettes held at 0° C., and baselines were established. At time zero the temperature controller was set at 26° C. At the time indicated by vertical dashed line the temperature controller was set at 0° C.
# The method is given in Example 1.
# S.D., standard deviation.
compound,measurement,setting,value
"COc1cc2c(cc1O)CCC1C2CCC2(C)C(O)CCC12 (centres unmarked) [NSC 659853, 2-Methoxyestradiol]",T/C (volume of treated tumors over volume of control tumors),[1],0.40
same,IC50,tubulin [2],3600 ± 400 nM
same,"inhibition of colchicine binding to tubulin (FIG. 2), in words",tubulin [3]; 5 μM [3H]colchicine,inhibits colchicine binding to tubulin
same,Percentage Inhibition of colchicine binding to tubulin,"tubulin [3]; 100 μM inhibitor, 2 μM [3H]colchicine, ± S.D.",82 ± 2%
same,inhibition of cell mitosis and growth of new blood vessels in CAM assay,[4],found to inhibit cell mitosis and the growth of new blood vessels
same,"RBA, Relative Binding Affinity to rat uterine cytosolic estrogen receptor",[5],0.245
same,Most Sensitive Cell Lines in Human Tumor Cell Panel Assay: Ovarian,[6],✓
same,Most Sensitive Cell Lines in Human Tumor Cell Panel Assay: Breast,"[7]; 8 cell lines, only MCF-7 and T-47D express estrogen and progesterone receptors",✓
same,IC50,"[7]; Homo sapiens, cell panel assay in vitro, two values per cell separated by /, read-out: Tumor Panel: Average log IC50(Molar) against 8 human breast cancer cell lines (converted)",234 nM
same,"inhibition of tubulin polymerization (FIG. 1), in words",tubulin [8]; 20-75 μM (A) or 1.0-4.0 μM (B) 2-methoxyestradiol,inhibition of tubulin polymerization
same,IC50,"tubulin [8]; read-out: IC50 (concentration required to inhibit tubulin polymerization by 50%), mean ± S.D., method of Example 1",1900 ± 200 nM
